Legend:
Test in all cases: relative viability (nuclei count vs DMSO), 5 days (fraction); higher = more cells survive
AGI-6780 + Olaparib = compound: O=C(Nc1cccc(C(F)(F)F)c1)Nc1cc(S(=O)(=O)NC2CC2)ccc1-c1ccsc1 [AGI-6780] + O=C(c1cc(Cc2n[nH]c(=O)c3ccccc23)ccc1F)N1CCN(C(=O)C2CC2)CC1 [Olaparib] (partner 8 µM)
How it was run: (§1)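 For relative viability, nuclei counts in treated wells were divided by those in vehicle wells. Lung cancer cell lines had been pin-tool dosed in 1536-well plates the day after seeding and cultured for 5 days, then fixed and stained in one step (final 0.05% Triton X-100, 1% formaldehyde, 1 ug/ml Hoechst) and imaged at 4×. Doses were one drug alone or a fixed anchor-drug dose plus five library-drug doses (not always all listed) in √10 steps, and values are duplicate-plate medians.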

AGI-6780 + Pemetrexed = compound: O=C(Nc1cccc(C(F)(F)F)c1)Nc1cc(S(=O)(=O)NC2CC2)ccc1-c1ccsc1 [AGI-6780] + Nc1nc2[nH]cc(CCc3ccc(C(=O)N[C@@H](CCC(=O)O)C(=O)O)cc3)c2c(=O)[nH]1 [Pemetrexed] (partner 0.2 µM)
How it was run: as §1

AGI-6780 + Palbociclib = compound: O=C(Nc1cccc(C(F)(F)F)c1)Nc1cc(S(=O)(=O)NC2CC2)ccc1-c1ccsc1 [AGI-6780] + CC(=O)c1c(C)c2cnc(Nc3ccc(N4CCNCC4)cn3)nc2n(C2CCCC2)c1=O [Palbociclib] (partner 0.5 µM)
How it was run: as §1

AGI-6780 + Alpelisib = compound: O=C(Nc1cccc(C(F)(F)F)c1)Nc1cc(S(=O)(=O)NC2CC2)ccc1-c1ccsc1 [AGI-6780] + Cc1nc(NC(=O)N2CCC[C@H]2C(N)=O)sc1-c1ccnc(C(C)(C)C(F)(F)F)c1 [Alpelisib] (partner 2 µM)
How it was run: as §1

| Cell Line | relative viability (AGI-6780 + Olaparib; first compound 0.08 µM) | relative viability (AGI-6780 + Olaparib; first compound 0.253 µM) | relative viability (AGI-6780 + Olaparib; first compound 0.8 µM) | relative viability (AGI-6780 + Olaparib; first compound 2.53 µM) | relative viability (AGI-6780 + Olaparib; first compound 8 µM) | relative viability (AGI-6780 + Pemetrexed; first compound 0.08 µM) | relative viability (AGI-6780 + Pemetrexed; first compound 0.253 µM) | relative viability (AGI-6780 + Pemetrexed; first compound 0.8 µM) | relative viability (AGI-6780 + Pemetrexed; first compound 2.53 µM) | relative viability (AGI-6780 + Pemetrexed; first compound 8 µM) | relative viability (AGI-6780 + Palbociclib; first compound 0.08 µM) | relative viability (AGI-6780 + Palbociclib; first compound 0.253 µM) | relative viability (AGI-6780 + Palbociclib; first compound 0.8 µM) | relative viability (AGI-6780 + Palbociclib; first compound 2.53 µM) | relative viability (AGI-6780 + Palbociclib; first compound 8 µM) | relative viability (AGI-6780 + Alpelisib; first compound 0.08 µM) | relative viability (AGI-6780 + Alpelisib; first compound 0.253 µM) | relative viability (AGI-6780 + Alpelisib; first compound 0.8 µM) | relative viability (AGI-6780 + Alpelisib; first compound 2.53 µM) | relative viability (AGI-6780 + Alpelisib; first compound 8 µM) |
| --- | --- | --- | --- | --- | --- | --- | --- | --- | --- | --- | --- | --- | --- | --- | --- | --- | --- | --- | --- | --- |
| NCI-H2126 | 0.981 | 0.895 | 0.914 | 0.84 | 0.959 | 0.743 | 0.649 | 0.616 | 0.676 | 0.768 | 0.38 | 0.357 | 0.36 | 0.391 | 0.341 | 0.812 | 0.72 | 0.767 | 0.696 | 0.741 |
| NCI-H2170 | 0.589 | 0.587 | 0.67 | – | 0.59 | 0.285 | 0.267 | 0.289 | – | 0.272 | 0.393 | 0.421 | 0.43 | – | 0.376 | 0.813 | 0.838 | 0.86 | – | 0.772 |
| NCI-H2228 | 0.686 | 0.769 | 0.591 | 0.41 | 0.736 | 0.338 | 0.343 | 0.384 | 0.34 | 0.391 | 0.726 | 0.961 | 0.631 | 0.667 | 0.766 | 0.904 | 0.831 | 0.563 | 0.618 | 0.635 |
| NCI-H2347 | 0.564 | 0.561 | 0.569 | 0.597 | 0.592 | 0.44 | 0.439 | 0.428 | 0.448 | 0.454 | 0.451 | 0.469 | 0.413 | 0.385 | 0.481 | 1 | 0.954 | 0.691 | 1 | 1.13 |
| NCI-H2405 | – | 0.85 | 0.776 | 0.838 | 0.758 | – | 1.05 | 0.902 | 0.975 | 1.05 | – | 0.532 | 0.45 | 0.47 | 0.526 | 0.895 | 0.824 | 0.506 | – | 0.767 |
| NCI-H3122 | 0.608 | 0.626 | 0.725 | 0.706 | 0.649 | 0.209 | 0.199 | 0.191 | 0.195 | 0.185 | 0.217 | 0.148 | 0.172 | 0.178 | 0.217 | 0.876 | 0.859 | 0.892 | 0.633 | 0.822 |
| PC-3 [JPC-3] | – | 1.09 | 1.11 | 1.18 | 0.962 | – | 1.08 | 1.26 | 1.19 | 0.987 | – | 0.574 | 0.563 | 0.566 | 0.571 | 1.02 | 1.02 | 0.976 | 0.983 | 1.02 |
| PC-14 | 0.378 | 0.282 | 0.234 | 0.318 | 0.276 | 0.143 | 0.147 | 0.141 | 0.16 | 0.134 | 0.533 | 0.538 | 0.568 | 0.553 | 0.546 | 0.947 | 0.986 | 0.944 | 0.913 | 0.961 |
| RERF-LC-KJ | 0.928 | 0.892 | 0.943 | 0.906 | 0.878 | 0.497 | 0.466 | 0.469 | 0.497 | 0.466 | 1.06 | 1.09 | 1.07 | 0.93 | 1.01 | 0.784 | 0.824 | 0.779 | 0.672 | 0.75 |
| SK-LU-1 | 0.506 | 0.482 | 0.349 | 0.402 | 0.456 | 0.981 | 0.93 | 0.765 | 0.984 | 1.11 | 0.422 | 0.411 | 0.284 | 0.409 | 0.39 | 0.957 | 0.906 | 0.797 | 1 | 1.02 |
| SK-MES-1 | 0.738 | 0.667 | 0.628 | 0.643 | 0.592 | 0.991 | 0.929 | 0.836 | 0.985 | 0.929 | 0.31 | 0.346 | 0.27 | 0.285 | 0.294 | 0.877 | 0.926 | 0.898 | 0.894 | 0.789 |
| SW 1573 | 0.578 | 0.481 | 0.525 | 0.426 | 0.465 | 0.866 | 0.787 | 0.921 | – | 0.874 | 0.399 | 0.332 | 0.479 | – | 0.37 | 0.876 | 0.843 | 0.76 | 0.649 | 0.554 |
| UMC-11 | 0.393 | 0.38 | 0.4 | – | 0.434 | 0.793 | 0.809 | 0.816 | – | 0.868 | 0.34 | 0.324 | 0.334 | – | 0.336 | 0.938 | 0.866 | 1.07 | – | 0.947 |

Reference: the supplement of paper PMC10307832
